The values below come from patent publication US20240285634A1, “COMPOUND AND METHOD FOR TREATING CHEMOTHERAPY-ASSOCIATED GASTROINTESTINAL SIDE EFFECTS” (ONQUALITY PHARMACEUTICALS CHINA LTD., priority 2021, published 2024).

Structures can show the parent of a compound that is named as a salt.

In test [1] the test system is Chemotherapeutic agent-caused constipation models of Balb/c mice. Nature of the test: Relieving effect on constipation caused by a chemotherapeutic agent (Examples 202-364). It is filed as in vivo. Conditions: for feces reduction rates compared with the chemotherapeutic agent group: administered before the chemotherapeutic agent, Table 4 and FIG. 4. The text has this: Construction of mouse animal models: Chemotherapeutic agent-caused constipation models of Balb/c mice were constructed according to the administration mode and frequency of the chemotherapeutic agent as shown in Table 4. […] Thus, chemotherapeutic agent-caused constipation models of mice are very good models to mimic constipation caused by the chemotherapeutic agent.
Balb/c mice were fed for 1 week, and then divided into groups. The experiment was divided into a control group, a chemotherapeutic agent group, and a group of the compound as shown in Formula I, each of which comprised 10 mice, to perform the administration experiment, for which the administration dosage, mode, time and frequency were shown in Table 4. The control group: being injected or intragastrically administered with the same solvent as that used in the group of the compound as shown in Formula I (the administration mode and time were shown in Table 4), and then being injected or intragastrically administered with the same solvent as that used in the chemotherapeutic agent group (the administration mode was shown in Table 4); the chemotherapeutic agent group: being injected or intragastrically administered with the same solvent as that used in the group of the compound as shown in Formula I (the administration mode and time was shown in Table 4), and then being injected or intragastrically administered with the chemotherapeutic agent (the type, administration mode and dosage were shown in Table 4); the group of the compound as shown in Formula I: being injected or intragastrically administered with the compound as shown in Formula I (the administration mode and time was shown in Table 4), and then being administered with the chemotherapeutic agent (the administration mode and dosage were shown in Table 4).
(§1) The feces reduction rate was calculated with reference to the method of Ji Eun Kim (Lab Anim Res. 2016 December; 32(4): 231-240.). Feces reduction rate (%)=(the control group−the chemotherapeutic agent group or the group of the compound as shown in Formula I)/the control group*100%
(§2) It is regarded as effective remission when the feces reduction rate of mice in the group of the compound as shown in Formula I is reduced compared with that in the chemotherapeutic agent group.
The feces amount of mice within 3 hours was observed and recorded every day. At the end of the experiment, the number of mice in the group of the compound as shown in Formula I whose feces reduction rate was lower than that of mice in the chemotherapeutic agent group was recorded. Table 4 lists various animal experiment combinations of chemotherapeutic agents and the compound as shown in Formula I, as well as the corresponding experimental results.

The test system of test [2] is Balb/c mice, constipation caused by continuous administration of a chemotherapeutic agent. Nature of the test: Relieving effect on constipation caused by the continuous administration of a chemotherapeutic agent (Examples 385-405). The format is in vivo. Particulars: for Relative remission rate (%): Fluorouracil (5-Fu) 100 mg/kg intraperitoneal injection once a day for 3 days, experimental cycle 7 days.
Text: Balb/c mice were fed for 1 week, and then divided into groups. The experiment was divided into a control group, a chemotherapeutic agent group, and a group of the compound as shown in Formula I, each of which comprised 10 mice, to perform the administration experiment, for which the administration dosage, mode, time and frequency were shown in Table 6. The control group: being injected or intragastrically administered with the same solvent as that used in the group of the compound as shown in Formula I (the administration mode and time were shown in Table 6), and then being injected or intragastrically administered with the same solvent as that used in the group of the compound as shown in Formula I (the administration mode was shown in Table 6); the chemotherapeutic agent group: being injected or intragastrically administered with the same solvent as that used in the group of the compound as shown in Formula I (the administration mode and time were shown in Table 6), and then being injected or intragastrically administered with the chemotherapeutic agent (the type, administration mode, time and dosage were shown in Table 6); the group of the compound as shown in Formula I: being injected or intragastrically administered with the compound as shown in Formula I (the administration mode and time were shown in Table 6), and then being administered with the chemotherapeutic agent (the type, administration mode, time and dosage were shown in Table 6).
as §1, §2
The feces amount of mice within 3 hours was observed and recorded every day. At the end of the experiment, the number of mice in the group of the compound as shown in Formula I whose feces reduction rate was lower than that of mice in the chemotherapeutic agent group was recorded. Table 6 lists various animal experiment combinations of chemotherapeutic agents and the compound as shown in Formula I, as well as the corresponding experimental results.

Where [3] appears, read: continuous administration of fluorouracil for less than 7 days.
Where [4] appears, read: continuous administration of the chemotherapeutic agent for 7 days or less.

Consider `O=C1NCC2(CCCCC2)n2c1cc1cnc(Nc3ccc(N4CCC(N5CCOCC5)CC4)cn3)nc12` [Compound III], for which the “Relative remission rate (%)” value in test [1] (Example 320, Fluorouracil 125 (F) and irinotecan 240 (I) mg/kg intraperitoneal injection single, compound subcutaneous injection 100 mg/kg single, 0.5 h before chemotherapeutic agent, cycle 7 days) is 50%; in test [1] (Example 321, Fluorouracil 125 (F) and irinotecan 240 (I) mg/kg intraperitoneal injection single, compound subcutaneous injection 100 mg/kg single, 24 h before chemotherapeutic agent, cycle 7 days), 20%; in test [1] (Example 349, Fluorouracil 100 (F), oxaliplatin 5 (O), irinotecan 100 (I) and tetrahydrofolic acid 100 (L) mg/kg intraperitoneal injection single, compound oral administration 150 mg/kg single, 6 h before chemotherapeutic agent, cycle 7 days), 30%; in test [1] (Example 350, Fluorouracil 100 (F), oxaliplatin 5 (O), irinotecan 100 (I) and tetrahydrofolic acid 100 (L) mg/kg intraperitoneal injection single, compound oral administration 150 mg/kg single, 12 h before chemotherapeutic agent, cycle 7 days), 30%; in test [1] (Example 362, Etoposide 60 (E) and carboplatin 5 (C) mg/kg intraperitoneal injection single, compound oral administration 100 mg/kg single, 0.5 h before chemotherapeutic agent, cycle 10 days) it was 50%; in test [2] (Example 398, compound 100 mg/kg intravenous injection once a day for 3 days, 2 h before the chemotherapeutic agent), 40%. Further, the “feces reduction rates compared with the chemotherapeutic agent group” value (“feces reduction rates” for short) in test [1] is “reduced to different degrees”. Moreover, the entries for the “relieving effects on constipation” value in test [2] (setting [3]) and in test [2] (setting [4]) were “significant relieving effects” and “have relieving effects”, respectively.
As to `O=C1NCC2(CCCCC2)n2c1cc1cnc(Nc3ccc(N4CCNCC4)cn3)nc12` [Compound II], the “Relative remission rate (%)” value was 50% in test [1] (Example 283, Oxaliplatin intravenous injection 25 mg/kg single, compound intramuscular injection 100 mg/kg single, 1 h before chemotherapeutic agent, cycle 7 days); 30% in test [1] (Example 284, Oxaliplatin intravenous injection 25 mg/kg single, compound intramuscular injection 100 mg/kg single, 6 h before chemotherapeutic agent, cycle 7 days); 30% in test [1] (Example 285, Oxaliplatin intravenous injection 25 mg/kg single, compound intramuscular injection 100 mg/kg single, 12 h before chemotherapeutic agent, cycle 7 days); 70% in test [1] (Example 347, Fluorouracil 100 (F), oxaliplatin 5 (O), irinotecan 100 (I) and tetrahydrofolic acid 100 (L) mg/kg intraperitoneal injection single, compound intravenous injection 100 mg/kg single, 0.5 h before chemotherapeutic agent, cycle 7 days); 50% in test [1] (Example 348, Fluorouracil 100 (F), oxaliplatin 5 (O), irinotecan 100 (I) and tetrahydrofolic acid 100 (L) mg/kg intraperitoneal injection single, compound intravenous injection 100 mg/kg single, 2 h before chemotherapeutic agent, cycle 7 days); 40% in test [1] (Example 359, Gemcitabine (GEM) intraperitoneal injection 120 mg/kg single, compound oral administration 100 mg/kg single, 12 h before chemotherapeutic agent, cycle 8 days). Further, the “Relative remission rate (%)” value in test [1] (Example 361, Etoposide 60 (E) and carboplatin 5 (C) mg/kg intraperitoneal injection single, compound oral administration 100 mg/kg single, 2 h before chemotherapeutic agent, cycle 10 days) is on record as 60%; in test [1] (Example 364, Gemcitabine 120 (G) and carboplatin 5 (C) mg/kg intravenous injection single, compound oral administration 100 mg/kg single, 24 h before chemotherapeutic agent, cycle 8 days) it was 30%; in test [2] (Example 397, compound 100 mg/kg intraperitoneal injection once a day for 3 days, 0.5 h before the chemotherapeutic agent) it was 20%. Further, the “feces reduction rates” value in test [1] was “reduced to different degrees”. Moreover, the entries for the “relieving effects on constipation” value in test [2] (setting [3]) and in test [2] (setting [4]) were “significant relieving effects” and “have relieving effects”, respectively.
`CC(C)N1CCN(c2ccc(Nc3ncc4cc5n(c4n3)C3(CCCCC3)CNC5=O)nc2)CC1` [Compound IV hydrochloride, Lerociclibdihydrochloride]: the “Relative remission rate (%)” value was 20% in test [1] (Example 353, Fluorouracil 100 (F), oxaliplatin 5 (O), irinotecan 100 (I) and tetrahydrofolic acid 100 (L) mg/kg intraperitoneal injection single, compound intraperitoneal injection 100 mg/kg single, 0.5 h before chemotherapeutic agent, cycle 7 days); 60% in test [1] (Example 354, Fluorouracil 100 (F), oxaliplatin 5 (O), irinotecan 100 (I) and tetrahydrofolic acid 100 (L) mg/kg intraperitoneal injection single, compound intraperitoneal injection 100 mg/kg single, 12 h before chemotherapeutic agent, cycle 7 days); 30% in test [1] (Example 357, Topotecan intraperitoneal injection 10 mg/kg single, compound oral administration 100 mg/kg single, 24 h before chemotherapeutic agent, cycle 14 days); 70% in test [1] (Example 358, Topotecan intravenous injection 20 mg/kg single, compound oral administration 100 mg/kg single, 12 h before chemotherapeutic agent, cycle 14 days); 50% in test [2] (Example 400, compound intraperitoneal injection, 2 h before the chemotherapeutic agent, dosage cell prints 'Once a day, for 3 days', frequency cell 'Single'); 30% in test [2] (Example 401, compound intraperitoneal injection, 12 h before the chemotherapeutic agent, dosage cell prints 'Once a day, for 3 days', frequency cell 'Single').
Regarding `CC(C)N1CCN(c2ccc(Nc3ncc4cc5n(c4n3)C3(CCCCC3)CNC5=O)nc2)CC1` [Compound IV, Lerociclib], the “Relative remission rate (%)” value was 30% in test [1] (Example 246, Fluorouracil (5-Fu) intravenous injection 250 mg/kg single, compound oral administration 100 mg/kg single, 0.5 h before chemotherapeutic agent, cycle 10 days); 60% in test [1] (Example 247, Fluorouracil (5-Fu) intravenous injection 250 mg/kg single, compound oral administration 100 mg/kg single, 4 h before chemotherapeutic agent, cycle 10 days); 20% in test [1] (Example 248, Fluorouracil (5-Fu) intravenous injection 250 mg/kg single, compound oral administration 100 mg/kg single, 12 h before chemotherapeutic agent, cycle 10 days); 60% in test [1] (Example 351, Fluorouracil 100 (F), oxaliplatin 5 (O), irinotecan 100 (I) and tetrahydrofolic acid 100 (L) mg/kg intraperitoneal injection single, compound oral administration 100 mg/kg single, 4 h before chemotherapeutic agent, cycle 7 days); 30% in test [1] (Example 352, Fluorouracil 100 (F), oxaliplatin 5 (O), irinotecan 100 (I) and tetrahydrofolic acid 100 (L) mg/kg intraperitoneal injection single, compound oral administration 100 mg/kg single, 24 h before chemotherapeutic agent, cycle 7 days); 60% in test [1] (Example 363, Gemcitabine and carboplatin intraperitoneal injection 120 mg/kg single, compound oral administration 100 mg/kg single, 4 h before chemotherapeutic agent, cycle 8 days). In addition, in test [2] (Example 399, compound 100 mg/kg oral administration once a day for 3 days, 4 h before the chemotherapeutic agent), the “Relative remission rate (%)” value was 50%. For the same molecule, the “feces reduction rates” value in test [1] is listed as “reduced to different degrees”. Moreover, the “relieving effects on constipation” value in test [2] (setting [3]) is reported as “significant relieving effects”; in test [2] (setting [4]), “have relieving effects”.
